Key:
[1] = test system: WT, Clock knockout and Bmal1 knockout MEF cells; test: Circadian rhythm monitoring in WT, Clock KO and Bmal1 KO MEF cells transduced with Bmal1-dLuc; assay type: cell-based, mouse; settings: WT vs Clock KO vs Bmal1 KO MEF cells
Description: Wild type (WT), Clock knockout (KO), and Bmal1 KO mouse embryonic fibroblast (MEF) cells were transduced with Bmal1-dLuc lentiviral particles to enable us to monitor the effect of CLK95 on circadian oscillation. To this end, virus particles were produced as follow: HEK 293T cells were transfected with 10 μg pLV6-Bmal1-dluc, 9 μg pCMV-ΔR8.2dvpr packaging and lug pCMV-VSVG envelope vectors at ˜70-80% confluency. The plasmid cocktail was mixed with 20 μL PEI in 400 μL DMEM and incubated at room temperature for 10 minutes and cells were transfected. After 16 hours of incubation at 37° C. under 5% CO2, 3 mL fresh D10 medium were added to plates. 48 hours after transfection, cell medium was replaced with 8 mL fresh D10 medium. Lentiviral particles were harvested at 72 and 96 hours post transfection. Collected particles were filtered through 0.45 μM syringe filter and aliquoted (750 μL) for storage at −80° C. for further use.
WT, Clock KO, and Bmal1 KO MEF cells were transduced with Bmal1-dluc lentiviral particles as follow: Cells were seeded in 35 mm cell culture plates at the density of 1×10^5 cell/plate. […] 72-hours post-transduction cells were synchronized with Dexamethasone (0.1 μM) and prepared for luminescence recording of the circadian oscillation as indicated at section 3.4

CLOCK:BMAL1 interaction = test: Co-immunoprecipitation (Co-IP) of CLOCK with FLAG-BMAL1; assay type: biochemical
Description: To investigate the binding sites of the CLK95 on CLOCK and BMAL1, promising residues which were computationally determined to interact with small molecule were mutated via site-directed mutagenesis. […] These amino acid residues were introduced to Bmal1 and CLOCK genes by PCR based mutagenesis. FLAG-tagged pcDNA4a-Bmal1 and […] were used as template DNAs. Each PCR reaction consisted of 50 ng of template DNA, 0.2 μM primer pair, 0.2 mM dNTPs and 3 units of Pfu DNA polymerase. Then the PCR reaction was performed under these conditions: 5 minutes at 98° C. followed by 12 cycles of 1 minute at 98° C., 1 minute at 55° C. and 15 minutes at 72° C. The PCR reaction completed with a final extension step at 72° C. for 15 minutes. PCR products were analysed with 0.8% of agarose. Bands at the right size were further treated with 1 μL FastDigest Dpn I (Thermo Scientific, FD1704) for 1 hour at 37° C. to digest methylated-parental DNA. Subsequently, DH5a (a strain of E. coli) cells were transformed with the 7 μL PCR product. Standard heat-shock transformation protocol was used. Transformed cells were plated on Ampicillin (100 μg/mL) containing Luria-Bertani (LB) agar plates and incubated overnight at 37° C. Later, colonies formed on the LB ager plate were selected to culture in 5 mL LB broth containing Ampicillin (100 μg/mL). After overnight incubation at 37° C., cells were harvested and plasmid isolation was performed with Macherey Nagel's NucleoSpin Plasmid (NoLid), Mini kit. Isolated plasmids were then sent for Sanger sequencing (Macrogen) to confirm desired single-site mutation.
To assess the effect CLK95 on BMAL1-CLOCK interaction Co-IP was employed. HEK 293T cell were transfected with FLAG-tagged pcDNA4a-Bmal1 or pCMV-Sport6-CLOCK plasmids. The FLAG-tagged pcDNA4a-Bmal1-R126A and pCMV-Sport6-CLOCK-F80A-K220A mutants were used in this assay. […] The protein concentration of each lysate was determined with the Pierce™ 660 nm Protein assay (Thermo Scientific, 22660). […]

[2] = test system: NIH 3T3 Bmal1-dLuc and U2OS Bmal1-dLuc cells; test: Real-time monitoring of circadian oscillation; assay type: cell-based
Description: NIH 3T3 Bmal1-dLuc and U2OS Bmal1-dLuc cells were used for real-time monitoring of circadian oscillation. While LumiCycle 32 (Actimetrics, USA) was used for recording the luminescence signals of NIH 3T3 Bmal1-dLuc cells, Synergy H1 (BioTek, USA) was used for recording the luminescence signals of U2OS Bmal1-dLuc cells. NIH 3T3 Bmal1-dLuc cells were plated in 35 mm cell culture dish at density of 45×10^4 cell/plate and incubated overnight at 37° C. under 5% CO2. The next day, cell medium was replaced with 0.1 μM Dexamethasone (Sigma D-8893) containing DMEM to synchronize the cells. After 2 hours incubation, cell media was exchanged with appropriate amount of CLK95 containing recording medium (10 g low glucose DMEM powder (Sigma D2902), 3.5 mg/mL D(+) glucose powder (Sigma G7021), 0.35 mg/mL sodium bicarbonate (Sigma S5761), 10 mM HEPES (Gibco 15630106), 5% FBS (Gibco, 16000044), 1% NEAA (Multicell 321-011-EL), 25 U/mL streptomycin-penicillin (Gibco 15140-122) which was supplemented with 0.1 mM Luciferin. Then plates were sealed with silicone grease to prevent evaporation and immediately placed in LumiCycle. This instrument continuously recorded the luminescence for each plate for 5-7 days with 10 minutes intervals at 37° C. LumiCycle Analysis software (Actimetrics) was used to analyse the changes in circadian rhythm. The data of the first day was excluded from analysis due to transient deviations caused after medium change.
For the experiments that were performed using Synergy-H1, U2OS Bmal1-dLuc cells were plated as triplicates into an opaque 96-well plate (5×10^4 cell/well). After synchronizing and treating the cells with CLK95, opaque 96-well plate was sealed with an optically clear film and placed under Synergy-H1 instrument. Luminescence signals were recorded for 5-7 days with 24 minutes intervals at 32° C.

[3] = NIH3T3 Bmal1-dLuc (Lumicycle) and U2OS Bmal1-dLuc (Synergy H1) cells

Structure (SMILES): CC1(c2ccc3ccccc3c2)NC(=O)N(CC(=O)Nc2nc(-c3ccc4c(c3)CCC4)cs2)C1=O (centres unmarked) [CLK95]
- dependence of circadian phenotype on CLOCK and BMAL1 [1]: effecting the circadian phenotype through CLOCK and BMAL1
- stability of CLOCK-BMAL1 (CLOCK:BMAL1 interaction): increasing the stability of CLOCK-BMAL1
- interaction between CLOCK and BMAL1 (CLOCK:BMAL1 interaction; Co-IP, HEK 293T lysates): increasing the interaction between CLOCK and BMAL1
- residue needed for binding to CLOCK:BMAL1 complex (CLOCK:BMAL1 interaction; R126A mutant Co-IP): Arg126 of BMAL1 is essential
- effect on circadian rhythm ([2]; Bmal1-dLuc U2OS cells): destroying the circadian rhythm
- effect on circadian amplitude [2, 3]: decreases the amplitude
- effect on circadian period [2, 3]: increases the period
- effect of higher doses on endogenous clock ([2]; higher doses): completely suppress the endogenous clock
